Reference: BindingDB's records for doi:10.1021/ja00082a004 (Nci-Fcrdc, 1994)

Target: T1, Dimer of Gag-Pol polyprotein [489-587] (Human immunodeficiency virus 1, UniProt P12497)
T1 construct: 489-587
Experiment: Protease Inhibition Assay
Conditions: pH 4.7; 30 °C
Procedure: HIV-1 protease activity was measured by a continuous fluorometric assay using the internally quenched fluorogenic substrate DABCYL-GABA-Ser-Gln-Tyr-Pro-Ile-Val-Gln-EDANS (BACHEM; M-1865) and a SPEX FluoroMax spectrofluorometer (excitation 340 nm, emission 490 nm). The apparent Ki was estimated by nonlinear regression (GraFit, Erithacus Software) to the equation for tight-binding inhibitor.

Point of comparison: CC(C)[C@H](NC(=O)N(C)Cc1ccccn1)C(=O)N[C@@H](Cc1ccccc1)C[C@@H](O)[C@H](Cc1ccccc1)NC(=O)[C@@H](NC(=O)N(C)Cc1ccccn1)C(C)C [(2S)-N-[(2S,3R,5S)-3-hydroxy-5-[(2S)-3-methyl-2-{[methyl(pyridin-2-ylmethyl)carbamoyl]amino}butanamido]-1,6-diphenylhexan-2-yl]-3-methyl-2-{[methyl(pyridin-2-ylmethyl)carbamoyl]amino}butanamide], Ki 0.004 nM. Against it:
- CC(C)[C@H](NC(=O)N(C)Cc1ccccn1)C(=O)N[C@@H](Cc1ccccc1)[C@H](O)[C@@H](O)[C@H](Cc1ccccc1)NC(=O)[C@@H](NC(=O)N(C)Cc1ccccn1)C(C)C [JMC51852 Inhibitor PP] — 2.8-fold higher, 0.011 nM
- CC(C)[C@H](NC(=O)N(C)Cc1ccccn1)C(=O)N[C@@H](Cc1ccccc1)[C@H](O)[C@H](O)[C@H](Cc1ccccc1)NC(=O)[C@@H](NC(=O)N(C)Cc1ccccn1)C(C)C [(2S)-N-[(2S,3R,4S,5S)-3,4-dihydroxy-5-[(2S)-3-methyl-2-{[methyl(pyridin-2-ylmethyl)carbamoyl]amino}butanamido]-1,6-diphenylhexan-2-yl]-3-methyl-2-{[methyl(pyridin-2-ylmethyl)carbamoyl]amino}butanamide] — 3-fold higher, 0.012 nM
- CC(C)[C@H](NC(=O)N(C)Cc1ccccn1)C(=O)N[C@@H](Cc1ccccc1)[C@@H](O)[C@H](O)[C@H](Cc1ccccc1)NC(=O)[C@@H](NC(=O)N(C)Cc1ccccn1)C(C)C [(2S)-N-[(2S,3R,4R,5S)-3,4-dihydroxy-5-[(2S)-3-methyl-2-{[methyl(pyridin-2-ylmethyl)carbamoyl]amino}butanamido]-1,6-diphenylhexan-2-yl]-3-methyl-2-{[methyl(pyridin-2-ylmethyl)carbamoyl]amino}butanamide] — 28-fold higher, 0.112 nM
